Test results from patent US20080214619A1, “Business method to treat and/or prevent a gastric acid disorder with a proton pump inhibitor (PPI) and a cholinergic agonist to induce rapid onset of PPI action with or without food” (priority 2006, published 2008).

Test system: acid secretion
Assay: Animal study, PPI + cholinergic stimulation: gastric acid output by titration of 30-min gastric collections in fasted, anesthetized, pylorus-ligated rats
Type: in vivo
Experimental: Rats are fasted overnight.
Rats are anesthetized and small laparotomy and gastrotomy are performed.
Tygon tubing placed through gastrotomy and into proximal duodenum; pylorus ligated
Tubing is placed through a small gastrotomy into the most dependent portion of the stomach; esophagogastric junction is ligated carefully to avoid vagal damage and to prevent aspiration
Gastrotomy and abdomen is closed around tubing
Stomach is gently rinsed with about 0.9% NaCl at about pH 7.
Gastric contents are collected by gravity for about 30 min, at which time is rinsed with about 5 ml of NaCl and collected; 30-min contents is titrated with about […] using radiometer automatic titrator to determine basal acid output (“BAO”)
Rats (3 per group) are randomized to 1 of 3 treatments: • A. Control—intraduodenal (ID) HCO3; • B. Carbachol about 15 μg/kg IP+ID HCO3; and • C. ID omeprazole (about 20 mg/kg) is dissolved in HCO3+carbachol about 15 μg/kg IP
Gastric contents are collected by gravity for about 30 min, at which time stomachs are rinsed with about 5 ml of NaCl and collected; contents are titrated with 0.01 M NaOH using a Radiometer pH meter; about 30-min collection is repeated ×6.

Compound: C[N+](C)(C)CCOC(N)=O [carbachol]
- effect on acid secretion (carbachol about 15 μg/kg IP + ID HCO3, 3 per group): rapidly stimulates acid secretion
- time at which acid secretion reaches a maximum level following administration (carbachol about 15 μg/kg IP + ID HCO3, gradually diminishes thereafter): about 90 min
